The record followed here is patent publication US8299048B2, “Hexahydrocyclopentyl[f]indazole sulfonamides and derivatives thereof as selective glucocorticoid receptor modulators” (Merck Sharp & Dohme Corp., priority 2008, dated 2012).

For this assay, the target named is T1, human GR (Homo sapiens, UniProt P04150).
T1 sequence (P04150 1-777): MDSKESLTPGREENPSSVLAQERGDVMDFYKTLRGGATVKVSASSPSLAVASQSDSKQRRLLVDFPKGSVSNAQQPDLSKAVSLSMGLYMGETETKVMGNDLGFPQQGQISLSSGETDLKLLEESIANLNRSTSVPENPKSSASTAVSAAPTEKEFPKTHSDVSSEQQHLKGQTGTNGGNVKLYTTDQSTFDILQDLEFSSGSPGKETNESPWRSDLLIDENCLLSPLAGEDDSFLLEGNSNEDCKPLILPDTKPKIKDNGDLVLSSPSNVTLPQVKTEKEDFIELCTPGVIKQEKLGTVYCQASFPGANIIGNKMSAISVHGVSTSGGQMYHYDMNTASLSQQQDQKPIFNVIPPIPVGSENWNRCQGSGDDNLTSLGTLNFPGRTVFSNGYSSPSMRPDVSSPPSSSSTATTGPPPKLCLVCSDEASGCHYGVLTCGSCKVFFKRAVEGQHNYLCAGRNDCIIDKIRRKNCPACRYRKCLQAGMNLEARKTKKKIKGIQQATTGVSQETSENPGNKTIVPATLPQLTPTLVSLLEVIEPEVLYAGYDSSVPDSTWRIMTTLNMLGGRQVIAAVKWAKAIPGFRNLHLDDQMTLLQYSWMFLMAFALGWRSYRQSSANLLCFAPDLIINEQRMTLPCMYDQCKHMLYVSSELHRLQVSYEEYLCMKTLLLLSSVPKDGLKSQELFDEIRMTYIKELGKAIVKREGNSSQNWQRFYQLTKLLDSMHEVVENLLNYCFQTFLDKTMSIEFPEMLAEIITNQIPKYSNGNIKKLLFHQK
The experiment in a line: Transrepression Assay (GITAR), TNFα-β-lactamase reporter in U937 cells. The assay is classed as cell-based. The arrangement: U937 cells contain an endogenous glucocorticoid receptor (GR); endogenous in cells; host or cells: U937 cells stably transfected with the TNF-alpha promoter/beta-lactamase reporter. The settings on record: for GITAR > GRAMM % SEP: GITAR Emax minus GRAMMER Emax; for EC50: U937 cells, inflection point, read-out: Transrepression U937 Cells GITAR IP. An outline of the steps: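 Read-out: CCF2-AM β-lactamase signal after 70–90 min loading at room temperature. U937 TNF-α-promoter reporter cells (endogenous GR), compound 30–45 min at 37 °C, then PMA 5 ng/ml + LPS 100 ng/ml final, ~18 hr. Normalised to 100 nM dexamethasone = 100%.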

The mark [1] stands for this setting: U-937, U937 cells, maximum activity, read-out: Transrepression U937 Cells GITAR Emax.
Setting [2] is: U-937, activity repressed by 100 nM dexamethasone alone set as 100%, read-out: maximal activity in the transrepression (GITAR) assay.

Like-named read-outs stand apart in the source and are kept apart here.

`C[C@]12Cc3cnn(-c4ccc(F)cc4)c3C=C1CC[C@@H]2CN(CC#N)S(=O)(=O)Cc1cccc(C(F)(F)F)c1` [Example 30, N-(cyanomethyl)-N-{[(4αR,5S)-1-(4-fluorophenyl}-4α-methyl-1,4,4α,5,6,7-hexahydrocyclopenta[f]indazol-5-yl]methyl}-1-[3-(trifluoromethyl)phenyl]methanesulfonamide]: the “GITAR > GRAMM % SEP” value stood at 16.4% and the EC50 is 0.417 µM. For the same molecule, the Emax under setting [1] is 19.9%. Moreover, the Emax under setting [2] is over 5%.

For the molecule `Cc1ccc(S(=O)(=O)N(CC#N)C[C@H]2CCC3=Cc4c(cnn4-c4ccc(F)cc4)C[C@@]32C)s1` [Example 31, N-(cyanomethyl)-N-{[(4αR,5S)-1-(4-fluorophenyl}-4α-methyl-1,4,4α,5,6,7-hexahydrocyclopenta[f]indazol-5-yl]methyl}-5-methylthiophene-2-sulfonamide], the “GITAR > GRAMM % SEP” value was determined as 34.0% and the EC50 turned out to be 0.679 µM. The Emax under setting [1] is 54.8%. Also, under setting [2], the Emax is over 5%.

For the molecule `Cn1cc(S(=O)(=O)N(CC#N)C[C@H]2CCC3=Cc4c(cnn4-c4ccc(F)cc4)C[C@@]32C)c(C(F)(F)F)n1` [Example 32, N-(cyanomethyl)-N-{[(4αR,5S)-1-(4-fluorophenyl}-4α-methyl-1,4,4α,5,6,7-hexahydrocyclopenta[f]indazol-5-yl]methyl}-1-methyl-3-(trifluoromethyl)-1H-pyrazole-4-sulfonamide], the “GITAR > GRAMM % SEP” value turned out to be 33.7% and the EC50 worked out at 0.555 µM. Besides, the Emax under setting [1] worked out at 63.1%. Moreover, under setting [2], the Emax is over 5%.

As to `Cc1cc(S(=O)(=O)N(CC#N)C[C@H]2CCC3=Cc4c(cnn4-c4ccc(F)cc4)C[C@@]32C)c(C)o1` [Example 33, (4αR,5S)-5-({(cyanomethyl)[(2,5-dimethyl-3-furyl)sulfonyl]amino}methyl)-1-(4-fluorophenyl)-4α-methyl-1,4,4α,5,6,7-hexahydrocyclopenta[f]indazol-2-ium], the “GITAR > GRAMM % SEP” value is 44.5% and the EC50 amounted to 1.2 µM. Further, the Emax under setting [1] amounted to 59.7%. Under setting [2], the Emax was over 5%.

With `COC(=O)c1sccc1S(=O)(=O)N(CC#N)C[C@H]1CCC2=Cc3c(cnn3-c3ccc(F)cc3)C[C@@]21C` [Example 34, methyl 3-[((cyanomethyl){[(4αR,5S)-1-(4-fluorophenyl)-4α-methyl-1,4,4α,5,6,7-hexahydrocyclopenta[f]indazol-5-yl]methyl}amino)sulfonyl]thiophene-2-carboxylate], the “GITAR > GRAMM % SEP” value is 8.9% and the EC50 is 1.78 µM. For the same molecule, under setting [1], the Emax stood at 45.9%. Under setting [2], the Emax was over 5%.

For `Cn1nc(C(F)(F)F)cc1-c1ccc(S(=O)(=O)N(CC#N)C[C@H]2CCC3=Cc4c(cnn4-c4ccc(F)cc4)C[C@@]32C)s1` [Example 35], the “GITAR > GRAMM % SEP” value is 34.6% and the EC50 was 0.777 µM. Besides, the Emax under setting [1] was determined as 39.5%. Under setting [2], the Emax was over 5%.

Consider `C[C@]12Cc3cnn(-c4ccc(F)cc4)c3C=C1CC[C@@H]2CN(CC#N)S(=O)(=O)c1cccc(C#N)c1` [Example 36, 3-cyano-N-(cyanomethyl)-N-{[(4αR,5S)-1-(4-fluorophenyl)-4α-methyl-1,4,4α,5,6,7-hexahydrocyclopenta[f]indazol-5-yl]methyl}benzenesulfonamide], for which the “GITAR > GRAMM % SEP” value is 49.5% and the EC50 came to 0.54 µM. Under setting [1], the Emax was 72.2%. Also, under setting [2], the Emax is over 5%.

On to `Cn1cnc(S(=O)(=O)N(CC#N)C[C@H]2CCC3=Cc4c(cnn4-c4ccc(F)cc4)C[C@@]32C)c1` [Example 37, N-(cyanomethyl)-N-{[(4αR,5S)-1-(4-fluorophenyl}-4α-methyl-1,4,4α,5,6,7-hexahydrocyclopenta[f]indazol-5-yl]methyl}-1-methyl-1H-imidazole-4-sulfonamide], for which the “GITAR > GRAMM % SEP” value is recorded as 30.9% and the EC50 turned out to be 1.35 µM. Besides, under setting [1], the Emax was determined as 33.8%. The Emax under setting [2] was over 5%.

For `C[C@]12Cc3cnn(-c4ccc(F)cc4)c3C=C1CC[C@@H]2CN(CC#N)S(=O)(=O)c1ccc(Oc2cccc(Cl)c2C#N)cc1` [Example 38, 4-(3-chloro-2-cyanophenoxy)-N-(cyanomethyl)-N-{[(4αR,5S)-1-(4-fluorophenyl)-4α-methyl-1,4,4α,5,6,7-hexahydrocyclopenta[f]indazol-5-yl]methyl}benzenesulfonamide], the “GITAR > GRAMM % SEP” value turned out to be 32.5% and the EC50 was 2.34 µM. For the same molecule, the Emax under setting [1] worked out at 33.8%. Further, the Emax under setting [2] was over 5%.

With `CN1CCOc2cc(S(=O)(=O)N(CC#N)C[C@H]3CCC4=Cc5c(cnn5-c5ccc(F)cc5)C[C@@]43C)ccc21` [Example 39, N-(cyanomethyl)-N-{[(4αR,5S)-1-(4-fluorophenyl)-4α-methyl-1,4,4α,5,6,7-hexahydrocyclopenta[f]indazol-5-yl]methyl}-4-methyl-3,4-dihydro-2H-1,4-benzoxazine-7-sulfonamide], the “GITAR > GRAMM % SEP” value is listed as 15.5% and the EC50 was 0.0349 µM. Further, the Emax under setting [1] came out at 17.1%. Further, under setting [2], the Emax was over 5%.

On to `C[C@]12Cc3cnn(-c4ccc(F)cc4)c3C=C1CC[C@@H]2CN(CC#N)S(=O)(=O)c1cccc2ccccc12` [Example 40, N-(cyanomethyl)-N-{[(4αR,5S)-1-(4-fluorophenyl)-4α-methyl-1,4,4α,5,6,7-hexahydrocyclopenta[f]indazol-5-yl]methyl}naphthalene-1-sulfonamide], for which the “GITAR > GRAMM % SEP” value is 16.6% and the EC50 was 0.0355 µM. Besides, under setting [1], the Emax was found to be 19.8%. Besides, the Emax under setting [2] was over 5%.

As to `C[C@]12Cc3cnn(-c4ccc(F)cc4)c3C=C1CC[C@@H]2CN(CC#N)S(=O)(=O)c1cc(OCC(F)(F)F)ccc1OCC(F)(F)F` [Example 41, N-(cyanomethyl)-N-{[(4αR,5S)-1-(4-fluorophenyl)-4α-methyl-1,4,4α,5,6,7-hexahydrocyclopenta[f]indazol-5-yl]methyl}-2,5-bis(2,2,2-trifluoroethoxy)benzenesulfonamide], the “GITAR > GRAMM % SEP” value amounted to 31.6% and the EC50 turned out to be 0.362 µM. Besides, the Emax under setting [1] was 91.9%. The Emax under setting [2] was over 5%.

Consider `C[C@]12Cc3cnn(-c4ccc(F)cc4)c3C=C1CC[C@@H]2CN(CC#N)S(=O)(=O)c1ccc(-c2ccccc2)cc1` [Example 42, N-(cyanomethyl)-N-{[(4αR,5S)-1-(4-fluorophenyl)-4α-methyl-1,4,4α,5,6,7-hexahydrocyclopenta[f]indazol-5-yl]methyl}biphenyl-4-sulfonamide], for which the “GITAR > GRAMM % SEP” value worked out at 15.1% and the EC50 worked out at 0.391 µM. For the same molecule, the Emax under setting [1] came to 19.2%. In addition, under setting [2], the Emax is over 5%.

Consider `C[C@]12Cc3cnn(-c4ccc(F)cc4)c3C=C1CC[C@@H]2CN(CC#N)S(=O)(=O)c1ccccc1F` [Example 43, N-(cyanomethyl)-2-fluoro-N-{[(4αR,5S)-1-(4-fluorophenyl)-4α-methyl-1,4,4α,5,6,7-hexahydrocyclopenta[f]indazol-5-yl]methyl}benzenesulfonamide], for which the “GITAR > GRAMM % SEP” value was found to be 35.8% and the EC50 was 1.1 µM. The Emax under setting [1] amounted to 71.8%. Also, the Emax under setting [2] was over 5%.
